Values joined by “and” are separate entries in the source; they are usually repeats but may differ in a detail not shown here. Equal values may be shown once. Toxic doses and inconclusive results are not listed. Rule as the data show it: active = T/C of 150% or more; inactive = T/C below 125%.
Tested on: L1210 leukemia ip in BDF1 mice, survival T/C
Assay: NCI In Vivo Anticancer Drug Screen. Data for tumor model L1210 Leukemia (intraperitoneal) in B6D2F1 (BDF1) mice
Conditions: endpoint: mean survival time, higher = longer survival
Outline: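 Each compound was tested against a transplantable tumor grown in mice. The endpoint was survival, with treated animals benchmarked against vehicle controls as a simple ratio.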

[1] = dose: 100.0 mg/kg/injection, schedule: Q01DX001 (ip), vehicle: carboxymethylcellulose (CMC)
[2] = dose: 200.0 mg/kg/injection, schedule: Q01DX001 (ip), vehicle: carboxymethylcellulose (CMC)
[3] = dose: 400.0 mg/kg/injection, schedule: Q01DX001 (ip), vehicle: carboxymethylcellulose (CMC)
[4] = dose: 100.0 mg/kg/injection, schedule: Q01DX001 (ip), vehicle: Klucel (hydroxypropylcellulose) (HPC)
[5] = dose: 200.0 mg/kg/injection, schedule: Q01DX001 (ip), vehicle: Klucel (hydroxypropylcellulose) (HPC)
[6] = dose: 100.0 mg/kg/injection, schedule: Q04DX002 (ip), vehicle: Klucel (hydroxypropylcellulose) (HPC)
[7] = dose: 200.0 mg/kg/injection, schedule: Q04DX002 (ip), vehicle: Klucel (hydroxypropylcellulose) (HPC)

Measured: T/C

C[NH-].C[NH-].[I][Pt+2][I]
inactive: dose: 12.0 mg/kg/injection, schedule: Q04DX003 (ip), vehicle: other 118 % of control | dose: 17.0 mg/kg/injection, schedule: Q04DX003 (ip), vehicle: other 113 % of control | dose: 18.0 mg/kg/injection, schedule: Q04DX003 (ip), vehicle: water 102 % of control | dose: 25.0 mg/kg/injection, schedule: Q04DX003 (ip), vehicle: other 108 % of control | dose: 25.0 mg/kg/injection, schedule: Q04DX003 (ip), vehicle: water 102 % of control | dose: 37.0 mg/kg/injection, schedule: Q04DX003 (ip), vehicle: other 111 % of control | dose: 37.0 mg/kg/injection, schedule: Q04DX003 (ip), vehicle: water 115 % of control | dose: 44.0 mg/kg/injection, schedule: Q01DX001 (ip), vehicle: other 113 % of control | dose: 50.0 mg/kg/injection, schedule: Q04DX003 (ip), vehicle: other 110 % of control | dose: 67.0 mg/kg/injection, schedule: Q01DX001 (ip), vehicle: other 114 % of control | dose: 100.0 mg/kg/injection, schedule: Q01DX001 (ip), vehicle: other 120 % of control

Cc1c(Cl)cccc1CC(Cl)C#N (centres undefined)
inactive: dose: 12.5 mg/kg/injection, schedule: Q01DX009 (ip), vehicle: saline with Tween-80 97 % of control | dose: 25.0 mg/kg/injection, schedule: Q01DX009 (ip), vehicle: saline with Tween-80 90 % of control | dose: 50.0 mg/kg/injection, schedule: Q01DX009 (ip), vehicle: saline with Tween-80 87 % of control | dose: 100.0 mg/kg/injection, schedule: Q01DX009 (ip), vehicle: saline with Tween-80 89 % of control

CC(C)(C)c1ccc(SCCN=C(N)CSS(=O)(=O)O)cc1
inactive: dose: 3.13 mg/kg/injection, schedule: Q01DX009 (ip), vehicle: Klucel (hydroxypropylcellulose) (HPC) 91 % of control | dose: 3.13 mg/kg/injection, schedule: Q04DX002 (ip), vehicle: Klucel (hydroxypropylcellulose) (HPC) 98 % of control | dose: 6.25 mg/kg/injection, schedule: Q01DX009 (ip), vehicle: Klucel (hydroxypropylcellulose) (HPC) 102 % of control | dose: 6.25 mg/kg/injection, schedule: Q04DX002 (ip), vehicle: Klucel (hydroxypropylcellulose) (HPC) 107 % of control | dose: 12.5 mg/kg/injection, schedule: Q04DX002 (ip), vehicle: Klucel (hydroxypropylcellulose) (HPC) 98 % of control and 106 % of control

Cc1cccc(CCc2ccc(Br)c(C)c2C)c1C
inactive: [1] 100 % of control | [2] 103 % of control | [3] 94 % of control

COc1c(NC(=O)CC(C)=O)ccc2c(C)cc(=O)n(C)c12
inactive: dose: 50.0 mg/kg/injection, schedule: Q01DX001 (ip), vehicle: Klucel (hydroxypropylcellulose) (HPC) 103 % of control | [4] 99 % of control | [5] 100 % of control

N=C(N)N=Nc1c(O)[nH]c2ccccc12
inactive: dose: 15.0 mg/kg/injection, schedule: Q01DX Z (ip), vehicle: saline 103 % of control | dose: 30.0 mg/kg/injection, schedule: Q01DX Z (ip), vehicle: saline 100 % of control | dose: 37.5 mg/kg/injection, schedule: Q01DX Z (oral), vehicle: carboxymethylcellulose (CMC) 102 % of control | dose: 60.0 mg/kg/injection, schedule: Q01DX Z (ip), vehicle: saline 94 % of control | dose: 75.0 mg/kg/injection, schedule: Q01DX Z (oral), vehicle: carboxymethylcellulose (CMC) 98 % of control | dose: 120.0 mg/kg/injection, schedule: Q01DX Z (ip), vehicle: saline 90 % of control | dose: 120.0 mg/kg/injection, schedule: Q01DX Z (oral), vehicle: other 95 % of control | dose: 150.0 mg/kg/injection, schedule: Q01DX Z (oral), vehicle: carboxymethylcellulose (CMC) 105 % of control | dose: 240.0 mg/kg/injection, schedule: Q01DX Z (oral), vehicle: other 98 % of control

CSc1nccc(=O)n1C
inactive: dose: 12.5 mg/kg/injection, schedule: Q01DX009 (ip), vehicle: saline 96 % of control | dose: 25.0 mg/kg/injection, schedule: Q01DX009 (ip), vehicle: saline 96 % of control | dose: 25.0 mg/kg/injection, schedule: Q04DX003 (ip), vehicle: saline 98 % of control | dose: 50.0 mg/kg/injection, schedule: Q01DX009 (ip), vehicle: saline 101 % of control | dose: 50.0 mg/kg/injection, schedule: Q04DX003 (ip), vehicle: saline 106 % of control | dose: 100.0 mg/kg/injection, schedule: Q04DX003 (ip), vehicle: saline 107 % of control

O=S(C/C=C/CS(=O)c1ccccc1)c1ccccc1 (centres undefined)
inactive: [6] 105 % of control | [7] 116 % of control | dose: 400.0 mg/kg/injection, schedule: Q04DX002 (ip), vehicle: Klucel (hydroxypropylcellulose) (HPC) 103 % of control

CCCCCCCCOC(=O)Nc1ccc(S(=O)(=O)NC2CCCCC2)cc1
inactive: [1] 89 % of control | [2] 89 % of control | [3] 94 % of control

Cc1nc[nH]c(=O)c1CCC(C)C
inactive: [4] 107 % of control | [5] 105 % of control | dose: 400.0 mg/kg/injection, schedule: Q01DX001 (ip), vehicle: Klucel (hydroxypropylcellulose) (HPC) 100 % of control

NC(=O)COc1ccc2ccccc2c1Cl
inactive: [6] 96 % of control | [7] 89 % of control

COc1ccc2c3c([nH]c2c1)C(C)=NCC3
inactive: dose: 25.0 mg/kg/injection, schedule: Q04DX002 (ip), vehicle: Klucel (hydroxypropylcellulose) (HPC) 93 % of control | dose: 50.0 mg/kg/injection, schedule: Q04DX002 (ip), vehicle: Klucel (hydroxypropylcellulose) (HPC) 101 % of control | [6] 93 % of control and 89 % of control

O=[N+]([O-])/C=C/c1ccc([N+](=O)[O-])cc1
inactive: dose: 6.25 mg/kg/injection, schedule: Q01DX005 (ip), vehicle: saline with Tween-80 110 % of control | dose: 12.5 mg/kg/injection, schedule: Q01DX005 (ip), vehicle: saline with Tween-80 104 % of control | dose: 25.0 mg/kg/injection, schedule: Q01DX005 (ip), vehicle: saline with Tween-80 114 % of control | dose: 50.0 mg/kg/injection, schedule: Q01DX009 (ip), vehicle: Klucel (hydroxypropylcellulose) (HPC) 93 % of control | dose: 100.0 mg/kg/injection, schedule: Q01DX009 (ip), vehicle: Klucel (hydroxypropylcellulose) (HPC) 97 % of control | dose: 100.0 mg/kg/injection, schedule: Q04DX003 (ip), vehicle: Klucel (hydroxypropylcellulose) (HPC) 96 % of control | dose: 200.0 mg/kg/injection, schedule: Q04DX003 (ip), vehicle: Klucel (hydroxypropylcellulose) (HPC) 104 % of control

[O]=[Sn]1[O][Bi]([O][Sn](=[O])[O][Bi]2[O][Sn](=[O])[O]2)[O]1
inactive: dose: 100.0 mg/kg/injection, schedule: Q01DX009 (ip), vehicle: saline 94 % of control | dose: 200.0 mg/kg/injection, schedule: Q01DX009 (ip), vehicle: saline 94 % of control | dose: 400.0 mg/kg/injection, schedule: Q01DX009 (ip), vehicle: saline 92 % of control

CC(=O)N1Cc2ncnc(N)c2C1
inactive: [1] 101 % of control | [2] 95 % of control | [3] 101 % of control

CCC1CC2CN3CCc4c([nH]c5ccccc45)C(C(=O)OC)(C2)C13 (centres undefined)
inactive: dose: 75.0 mg/kg/injection, schedule: Q01DX001 (ip), vehicle: other 96 % of control | dose: 150.0 mg/kg/injection, schedule: Q01DX001 (ip), vehicle: other 105 % of control

CCN(CC)CCCNc1c2ccccc2nc2ccccc12
inactive: dose: 5.0 mg/kg/injection, schedule: Q01DX001 (ip), vehicle: saline 113 % of control | dose: 10.0 mg/kg/injection, schedule: Q01DX001 (ip), vehicle: saline 104 % of control | dose: 20.0 mg/kg/injection, schedule: Q01DX001 (ip), vehicle: saline 115 % of control | dose: 40.0 mg/kg/injection, schedule: Q01DX001 (ip), vehicle: saline 87 % of control

From PubChem BioAssay AID248 (DTP/NCI, 2004)
